Reference: publication PMC10495264 (Nature Cell Biology, 2023)
Where “and” joins values, the source holds several entries; their conditions need not be identical. Equal entries are not always repeated.

Tests used:
[1] = tested on: mTORC2; experiment: mTORC2 activity in HEK293FT cells, p-AKT^S473/AKT immunoblot; format: cell-based, human
Method: Phosphorylation of Ypk1 was used as the TORC2 readout. Phosphorylation of Snf1 was used as the AMPK activation readout. Total Snf1 was detected with an antibody to a histidine (His) stretch in Snf1. […] Source numerical data and unprocessed blots are provided. Source data
(§1) Amino-acid-starvation experiments were carried out as described before[42],[43]. […] For the lipid depletion experiments, cells were cultured in medium containing 10% charcoal-stripped FBS (A3382101, Thermo Fisher Scientific), instead of full FBS, for 24 h before treatments with FASN inhibitors were performed. For FA supplementation, each FA was first conjugated to 10% FA-free BSA (fraction V; cat. no. 10735086001, Roche) for 1 h at 50 °C in a 50:50 volumetric ratio. The BSA-conjugated C16:0, C16:1, C18:1 and C18:2 FAs (100 μM) were then added to the media both 16 h previous to and at the start of the treatment with FASN inhibitors.
(§2) For standard SDS–PAGE and immunoblotting experiments, cells from a well of a 12-well plate were lysed in 250 μl of ice-cold Triton lysis buffer (50 mM Tris pH 7.5, 1% Triton X-100, 150 mM NaCl, 50 mM NaF, 2 mM Na-vanadate and 0.011 g ml^−1 β-glycerophosphate) supplemented with 1×PhosSTOP phosphatase inhibitors (cat. no. 4906837001, Roche) and 1×cOmplete protease inhibitors (cat. no. 11836153001, Roche) for 10 min on ice. The samples were clarified by centrifugation (20,000g, 15 min, 4 °C) and the supernatants were boiled in 1×SDS sample buffer (5×SDS sample buffer: 350 mM Tris–HCl pH 6.8, 30% glycerol, 600 mM DTT, 12.8% SDS and 0.12% bromophenol blue). The band intensities were quantified using the ImageJ software.

[2] = tested on: mTORC1; experiment: mTORC1 activity in HEK293FT cells (WT and knockout lines), phosphorylation of S6K, 4E-BP1, Grb10, TFEB by immunoblot; format: cell-based, human; settings: for p-S6K(T389)/S6K: Replicates 1-3, DMSO = 1 (ED Fig. 8h)
Method: Data represent the median fluorescence intensity of OPP Alexa Fluor 488; n = 6 biological replicates from two independent experiments. b,c,e,g,i,k,l, Data are the mean ± s.e.m. *P < 0.05, **P < 0.005, ***P < 0.0005. […] Source numerical data and unprocessed blots are provided. Source data
as §1, §2

[3] = tested on: mTORC1; experiment: mTORC1 activity in HEK293T cells (WT, AMPKα1/2 KO, DEPDC5 and RagA/B triple KO), p-S6K^T389/S6K immunoblot; format: cell-based, human
Method: Source numerical data and unprocessed blots are provided. Source data
as §2
Data in graphs are shown as the mean ± s.e.m. *P < 0.05, **P < 0.005, ***P < 0.0005. Source numerical data and unprocessed blots are provided. Source data

[4] = tested on: AMPK; experiment: AMPK and ACC1 phosphorylation immunoblot; format: cell-based, human; settings: relative to DMSO
Method: as §2
(§3) Data in graphs are shown as the mean ± s.e.m. *P < 0.05, **P < 0.005. Source numerical data and unprocessed blots are provided. Source data

[5] = tested on: mTORC1; experiment: mTORC1 activity in U2OS cells, immunoblot; format: cell-based, human; settings: Fasnall 25 μM 30 min; cerulenin 50 μM 2 or 4 h
[6] = tested on: ERK1/2; experiment: ERK1/2 phosphorylation immunoblot; format: cell-based, human; settings: ED Fig. 5k; relative to DMSO
Method: as §2, §3

[7] = tested on: mTOR lysosomal localization; experiment: Co-localization of mTOR with LAMP2, confocal microscopy; format: cell-based, human
[8] = tested on: mTORC1; experiment: mTORC1 activity in mouse embryonic fibroblasts (MEFs), p-S6K^T389/S6K immunoblot; format: cell-based
[9] = Fasnall 25 μM 30 min, cerulenin 50 μM 4 h

## Cc1sc2ncnc(NC3CCN(Cc4ccccc4)C3)c2c1C (stereo not shown) [Fasnall]
[1]; 25 μM Fasnall 30 min, DMSO = 1, n = 4, Fig. 3b
  p-AKT(S473)/AKT, Mean: 1.017
[1]; [9]
  phosphorylation of Akt (mTORC2 substrate): did not significantly alter
[2]; ED Fig. 3b, relative to DMSO
  p-Grb10(S476)/Grb10, Mean: 0.4881
[2]; ED Fig. 3c, relative to DMSO
  p-TFEB(S211)/TFEB, Mean: 0.3867
[2]; ED Fig. 4n, relative to DMSO
  p-S6K(T389)/S6K, Mean: 0.2327
[2]; [9]
  mTORC1 activity towards Grb10 and TFEB (cerulenin: also 4E-BP1): downregulates
[2]; HEK293FT cells, Fasnall, cerulenin or siFASN
  mTORC1 activity (phosphorylation of S6K, 4E-BP1, Grb10 and TFEB): suppressed
[2]; HEK293FT expressing FLAG-ACC1 S79A, Fasnall 25 μM, 30 min, respective DMSO = 1, Fig. 4b
  p-S6K(T389)/S6K, Mean: 0.3193
[2]; HEK293FT expressing FLAG-ACC1 WT, Fasnall 25 μM, 30 min, respective DMSO = 1, Fig. 4b
  p-S6K(T389)/S6K, Mean: 0.6407
[2]; HEK293FT expressing FLAG-Luc, Fasnall 25 μM, 30 min, respective DMSO = 1, Fig. 4b
  p-S6K(T389)/S6K, Mean: 0.6832
[2]; HEK293FT, 25 μM Fasnall 30', DMSO = 1, n = 6, Fig. 2g
  p-S6K(T389)/S6K, Mean: 0.526
[2]; HEK293FT, 25 μM Fasnall 60', DMSO = 1, n = 6, Fig. 2g
  p-S6K(T389)/S6K, Mean: 0.5445
[2]; Luc-expressing cells, Fasnall 30', DMSO = 1 (ED Fig. 8h)
  p-S6K(T389)/S6K, Mean: 0.4328
[2]; Luc-expressing cells, Fasnall 30'
  p-S6K(T389)/S6K: 0.4633 and 0.548 and 0.2872
[2]; Luc-expressing cells, Fasnall 60', DMSO = 1 (ED Fig. 8h)
  p-S6K(T389)/S6K, Mean: 0.3861
[2]; Luc-expressing cells, Fasnall 60'
  p-S6K(T389)/S6K: 0.4934 and 0.1817 and 0.4832
[2]; RagA(QL)/C(SN)-expressing cells, Fasnall 30', DMSO = 1 (ED Fig. 8h)
  p-S6K(T389)/S6K, Mean: 0.4794
[2]; RagA(QL)/C(SN)-expressing cells, Fasnall 30'
  p-S6K(T389)/S6K: 0.6415 and 0.4768 and 0.3198
[2]; RagA(QL)/C(SN)-expressing cells, Fasnall 60', DMSO = 1 (ED Fig. 8h)
  p-S6K(T389)/S6K, Mean: 0.4741
[2]; RagA(QL)/C(SN)-expressing cells, Fasnall 60'
  p-S6K(T389)/S6K: 0.6662 and 0.3714 and 0.3847
[2]; RagA/B KO HEK293FT, 25 μM Fasnall 30', respective DMSO = 1, n = 4, Fig. 5i
  p-S6K(T389)/S6K, Mean: 0.306
[2]; RagA/B KO HEK293FT, 25 μM Fasnall 60', respective DMSO = 1, n = 4, Fig. 5i
  p-S6K(T389)/S6K, Mean: 0.3694
[2]; TSC1 KO HEK293FT, 25 μM Fasnall 30 min, respective DMSO = 1, n = 6, Fig. 5n
  p-S6K(T389)/S6K, Mean: 0.4771
[2]; WT HEK293FT, 25 μM Fasnall 30', respective DMSO = 1, n = 4, Fig. 5i
  p-S6K(T389)/S6K, Mean: 0.3695
[2]; WT HEK293FT, 25 μM Fasnall 60', respective DMSO = 1, n = 4, Fig. 5i
  p-S6K(T389)/S6K, Mean: 0.3619
[2]; WT HEK293FT, 25 μM Fasnall 30 min, respective DMSO = 1, n = 6, Fig. 5n
  p-S6K(T389)/S6K, Mean: 0.3275
[3]; ED Fig. 7b, AMPKa1/2 KO, 30', relative to AMPKa1/2 KO DMSO
  p-S6K(T389)/S6K, Mean: 0.6838
[3]; ED Fig. 7b, AMPKa1/2 KO, 60', relative to AMPKa1/2 KO DMSO
  p-S6K(T389)/S6K, Mean: 0.7858
[3]; ED Fig. 7b, WT, 30', relative to WT DMSO
  p-S6K(T389)/S6K, Mean: 0.4433
[3]; ED Fig. 7b, WT, 60', relative to WT DMSO
  p-S6K(T389)/S6K, Mean: 0.4902
[3]; ED Fig. 7g, DEPDC5+RagA/B KO, 30', relative to DEPDC5+RagA/B KO DMSO
  p-S6K(T389)/S6K, Mean: 0.2954
[3]; ED Fig. 7g, DEPDC5+RagA/B KO, 60', relative to DEPDC5+RagA/B KO DMSO
  p-S6K(T389)/S6K, Mean: 0.2391
[3]; ED Fig. 7g, WT, 30', relative to WT DMSO
  p-S6K(T389)/S6K, Mean: 0.4545
[3]; ED Fig. 7g, WT, 60', relative to WT DMSO
  p-S6K(T389)/S6K, Mean: 0.4895
[4]; ED Fig. 5b
  p-AMPK(T172)/AMPK, Mean: 4.063
[4]; ED Fig. 5c
  p-ACC1(S79)/ACC1, Mean: 2.603
[5]
  mTORC1 activity in U2OS: downregulates
[6]
  p-ERK(T202/Y204)/ERK, Mean: 0.525
[7]; Fasnall 30', Replicate 2, individual cells (ED Fig. 8b)
  mTOR/LAMP2 colocalization (Manders' coefficient): 0.475 and 0.399 and 0.259 and 0.343 and 0.372 and 0.439 and 0.359 and 0.413 and 0.403 and 0.14 and 0.1 and 0.291 and 0.207 and 0.085 and 0.364 and 0.524 and 0.395 and 0.22 and 0.281 and 0.339 and 0.627 and 0.352 and 0.483 and 0.276 and 0.195 and 0.511 and 0.191
[7]; Fasnall 30', Replicate 4, individual cells (ED Fig. 8b)
  mTOR/LAMP2 colocalization (Manders' coefficient): 0.446 and 0.648 and 0.366 and 0.481 and 0.313 and 0.232 and 0.1 and 0.151 and 0.321 and 0.261 and 0.549 and 0.486 and 0.59 and 0.448 and 0.288 and 0.329 and 0.377 and 0.426 and 0.197 and 0.422 and 0.449 and 0.465 and 0.297 and 0.542 and 0.319 and 0.458 and 0.212 and 0.351 and 0.306
[7]; Fasnall 30', mean of pooled individual cells (ED Fig. 8b), DMSO mean 0.568258
  mTOR/LAMP2 colocalization (Manders' coefficient), Mean: 0.3868
[7]; Fasnall 60', Replicate 2, individual cells (ED Fig. 8b)
  mTOR/LAMP2 colocalization (Manders' coefficient): 0.202 and 0.487 and 0.43 and 0.287 and 0.399 and 0.342 and 0.295 and 0.326 and 0.268 and 0.605 and 0.328 and 0.333 and 0.315 and 0.375 and 0.636 and 0.498 and 0.603 and 0.513 and 0.443
[7]; Fasnall 60', Replicate 4, individual cells (ED Fig. 8b)
  mTOR/LAMP2 colocalization (Manders' coefficient): 0.425 and 0.202 and 0.399 and 0.49 and 0.499 and 0.282 and 0.303 and 0.344 and 0.361 and 0.405 and 0.518 and 0.461 and 0.434 and 0.504 and 0.271 and 0.298 and 0.295 and 0.41 and 0.416 and 0.567 and 0.365 and 0.689 and 0.431 and 0.398 and 0.488
[7]; Fasnall 60', mean of pooled individual cells (ED Fig. 8b), DMSO mean 0.568258
  mTOR/LAMP2 colocalization (Manders' coefficient), Mean: 0.4158
[7]; HEK293FT, 25 μM Fasnall or 50 μM cerulenin
  mTOR localization at lysosomes (co-localization with LAMP2): significant dissociation
[7]; Luc-expressing cells, Fasnall 30' (ED Fig. 8j), Luc DMSO mean 0.429851
  mTOR/LAMP2 colocalization (Manders' coefficient), Mean: 0.3242
[7]; RagA(QL)/C(SN)-expressing cells, Fasnall 30' (ED Fig. 8j), DMSO mean 0.528308
  mTOR/LAMP2 colocalization (Manders' coefficient), Mean: 0.4688
[8]; ED Fig. 4b, relative to DMSO
  p-S6K(T389)/S6K, Mean: 0.4247
[8]; Fasnall 25 μM 30 min, cerulenin 50 μM 2 or 4 h
  mTORC1 activity in MEFs: downregulates
